Assay results taken from patent EP0620225B1, “Cephalosporin derivatives” (Basilea Pharmaceutica AG, priority 1993, dated 1994).
Values after ≈ are worked out from the molar mass of the structure shown.

Legend:
E.faecalis [1] = experiment: In vitro activity against selected species (MIC50, MIC90, range); type: cell-based; settings: Enterococcus faecalis, medium MHA
Protocol: (§1) In vitro activity was determined by minimum inhibitory concentration in a microorganism spectum by the agar dilution method in Mueller Hinton agar.

S.aureus MRSA = experiment: as above; type: cell-based; settings: Staphylococcus aureus, medium MHA (Mueller Hinton Agar) +NaCl
Protocol: as §1

E.faecium = experiment: In vitro activity against selected species (MIC50, range); type: cell-based; settings: Enterococcus faecium, medium MHA
Protocol: as §1

S.pneumoniae PEN-R = experiment: In vitro activity against selected species (MIC50, MIC90, range); type: cell-based; settings: Streptococcus pneumoniae; for MIC: MIC range
M.catarrhalis = experiment: as above; type: cell-based; settings: Moraxella catarrhalis, medium IsoB
S.aureus Smith = experiment: Efficacy against systemic infections (septicemia) in mice; type: in vivo; settings: Staphylococcus aureus, 96 h, sc 1 and 3 h after challenge, survival day 4
Protocol: (§2) Septicemia was induced in outbred Swiss albino mice (Jbm MoRo [specific pathogen free]; weight 16 to 20 g, Biomedical Research Laboratories, Füllinsdorf, Switzerland). Mice were infected by intraperitoneal injection of diluted overnight cultures of the test organisms. Bacterial challenge doses were 4-10 times the number of organisms required to kill 50% of untreated animals within 48 h. The test compounds were administered p.o. or s.c. 1 and 3 h after the bacterial challenge. To treat the infection with Pseudomonas aeruginosa BA an additional dose was given 5 h after challenge. Control and treatment groups at each dose were composed of five mice each. The 50% effective dose (ED50, in milligrams per kilogram) was calculated by probit analysis as described by Finney (Finney, D.J. 1978, Statistical method in biological assay, 3rd ed. Charles Griffin & Co., Ltd., London), from the survival rates on day 4 after infection.

Escherichia coli 25922 = experiment: as above; type: in vivo; settings: 96 h, survival day 4
Protocol: as §2

Acinetobacter sp.51-156 = experiment: Antibacterial spectrum (MIC), agar dilution; type: cell-based; settings: SP.51156, read-out: MIC
Protocol: as §1

P.aeruginosa 27853 = experiment: Antibacterial spectrum (MIC), agar dilution; type: cell-based; settings: Pseudomonas aeruginosa, read-out: MIC
Protocol: as §1

X.maltophilia 1AC739 = experiment: Antibacterial spectrum (MIC), agar dilution; type: cell-based; settings: Stenotrophomonas maltophilia, read-out: MIC
Protocol: as §1

S.agalactiae QK44 = experiment: Antibacterial spectrum (MIC), agar dilution; type: cell-based; settings: Streptococcus agalactiae, read-out: MIC
Protocol: as §1

S.pyogenes B15 = experiment: Antibacterial spectrum (MIC), agar dilution; type: cell-based; settings: Streptococcus pyogenes, read-out: MIC
Protocol: as §1

C.freundii 43 = experiment: Antibacterial spectrum (MIC), agar dilution; type: cell-based; settings: Citrobacter freundii, read-out: MIC
Protocol: as §1

S.viridans group 016 = experiment: Antibacterial spectrum (MIC), agar dilution; type: cell-based; settings: Streptococcus viridans, read-out: MIC
Protocol: as §1

S.aureus 6538 = experiment: Antibacterial spectrum (MIC), agar dilution; type: cell-based; settings: Staphylococcus aureus, read-out: MIC
Protocol: as §1

E.coli 25922 = experiment: Antibacterial spectrum (MIC), agar dilution; type: cell-based; settings: Escherichia coli, read-out: MIC
Protocol: as §1

P.mirabilis 2117 = experiment: Antibacterial spectrum (MIC), agar dilution; type: cell-based; settings: Proteus mirabilis, read-out: MIC
Protocol: as §1

K.pneumoniae 418 = experiment: Antibacterial spectrum (MIC), agar dilution; type: cell-based; settings: Klebsiella pneumoniae, read-out: MIC
Protocol: as §1

C.freundii 902 = experiment: Antibacterial spectrum (MIC), agar dilution; type: cell-based; settings: Citrobacter freundii, read-out: MIC
Protocol: as §1

S.aureus 734 MRSA = experiment: Antibacterial spectrum (MIC), agar dilution; type: cell-based; settings: Staphylococcus aureus, read-out: MIC
Protocol: as §1

E.cloacae 908SSi = experiment: Antibacterial spectrum (MIC), agar dilution; type: cell-based; settings: Enterobacter cloacae, read-out: MIC
Protocol: as §1

P.vulgaris 1028 = experiment: Antibacterial spectrum (MIC), agar dilution; type: cell-based; settings: Proteus vulgaris, read-out: MIC
Protocol: as §1

N.meningitidis 69480 = experiment: Antibacterial spectrum (MIC), agar dilution; type: cell-based; settings: Neisseria meningitidis, read-out: MIC
Protocol: as §1

M.catarrhalis RA21 = experiment: Antibacterial spectrum (MIC), agar dilution; type: cell-based; settings: Moraxella catarrhalis, read-out: MIC
Protocol: as §1

S.pneumoniae Q19 = experiment: Antibacterial spectrum (MIC), agar dilution; type: cell-based; settings: Streptococcus pneumoniae, read-out: MIC
Protocol: as §1

S.marcescens 69438 = experiment: Antibacterial spectrum (MIC), agar dilution; type: cell-based; settings: Serratia marcescens, read-out: MIC
Protocol: as §1

M.morganii 6H-137 = experiment: Antibacterial spectrum (MIC), agar dilution; type: cell-based; settings: Morganella morganii, 6H137, read-out: MIC
Protocol: as §1

H.influenzae 1 = experiment: Antibacterial spectrum (MIC), agar dilution; type: cell-based; settings: Haemophilus influenzae, read-out: MIC
Protocol: as §1

E.cloacae 908R = experiment: Antibacterial spectrum (MIC), agar dilution; type: cell-based; settings: Enterobacter cloacae, read-out: MIC
Protocol: as §1

E.faecalis 6 = experiment: Antibacterial spectrum (MIC), agar dilution; type: cell-based; settings: Enterococcus faecalis, read-out: MIC
Protocol: as §1

S.aureus MSSA = experiment: In vitro activity against selected species (MIC50, MIC90, range); type: cell-based; settings: Staphylococcus aureus, medium MHB (Mueller Hinton Broth)
E.faecalis [2] = experiment: as above; type: cell-based; settings: Enterococcus faecalis, medium IsoB
S.viridans group = experiment: as above; type: cell-based; settings: Streptococcus viridans
[3] = medium IsoB (Isosensitest Broth)

With Nc1nc(/C(=N/O)C(=O)N[C@@H]2C(=O)N3C(C(=O)O)=C(/C=C4\CCN(C5CC5)C4=O)CS[C@H]23)cs1 [D, [6R-[3(E),6α,7β(Z)]]-7-[[(2-Amino-4-thiazolyl)(hydroxyimino)-acetyl]amino] -3-[[1-cyclopropyl-2-oxo-3-pyrrolidinylidene]-methyl)-8-oxo-5-thia-1-azabicyclo[4.2.0]-oct-2-ene-2-carboxylic acid] the MIC (E.faecalis [1]; MIC range) was 1 to 2 µg/mL (≈ 1.98 to 3.96 µM), the MIC50 (E.faecalis [1]) was 1 µg/mL (≈ 1.98 µM) and the MIC90 (E.faecalis [1]) was 2 µg/mL (≈ 3.96 µM). For the same compound, the MIC (S.aureus MRSA; MIC range) was 16 to 32 µg/mL (≈ 31.7 to 63.4 µM), the MIC50 (S.aureus MRSA) was 16 µg/mL (≈ 31.7 µM) and the MIC90 (S.aureus MRSA) was 16 µg/mL (≈ 31.7 µM). The MIC (E.faecium; MIC range) was 1 to 32 µg/mL (≈ 1.98 to 63.4 µM), the MIC50 (E.faecium) was 4 µg/mL (≈ 7.93 µM) and the MIC (S.pneumoniae PEN-R; [3]) was 0.12 to 0.5 µg/mL (≈ 0.238 to 0.991 µM). For the same compound, the MIC (S.pneumoniae PEN-R; medium IsoB + 20% serum) was 0.12 to 0.5 µg/mL, the MIC50 (S.pneumoniae PEN-R; [3]) was 0.25 µg/mL (≈ 0.495 µM) and the MIC90 (S.pneumoniae PEN-R; [3]) was 0.5 µg/mL (≈ 0.991 µM). The MIC50 (S.pneumoniae PEN-R; medium IsoB + 20% serum) was 0.5 µg/mL, the MIC (M.catarrhalis; MIC range) was 1 to 32 µg/mL (≈ 1.98 to 63.4 µM) and the MIC50 (M.catarrhalis) was 4 µg/mL (≈ 7.93 µM). For the same compound, the MIC90 (M.catarrhalis) was 16 µg/mL (≈ 31.7 µM), the ED50 (S.aureus Smith) was < 1 mg/kg and the ED50 (Escherichia coli 25922; Escherichia coli 25922, po (orally) 1 and 3 h after challenge) was 3 mg/kg. The ED50 (Escherichia coli 25922; Escherichia coli, E.coli 25922, sc 1 and 3 h after challenge) was ≤ 0.1 mg/kg, the MIC (Acinetobacter sp.51-156) was 16 µg/mL (≈ 31.7 µM) and the MIC (P.aeruginosa 27853) was 8 µg/mL (≈ 15.9 µM). For the same compound, the MIC (X.maltophilia 1AC739) was > 32 µg/mL, the MIC (S.agalactiae QK44) was 0.25 µg/mL (≈ 0.495 µM) and the MIC (S.pyogenes B15) was ≤ 0.06 µg/mL. For the same compound, the MIC (C.freundii 43) was 2 µg/mL (≈ 3.96 µM), the MIC (S.viridans group 016) was 1 µg/mL (≈ 1.98 µM) and the MIC (S.aureus 6538) was 0.5 µg/mL (≈ 0.991 µM). For the same compound, the MIC (E.coli 25922) was ≤ 0.06 µg/mL, the MIC (P.mirabilis 2117) was ≤ 0.06 µg/mL and the MIC (K.pneumoniae 418) was ≤ 0.06 µg/mL. For the same compound, the MIC (C.freundii 902) was ≤ 0.06 µg/mL, the MIC (S.aureus 734 MRSA) was 16 µg/mL (≈ 31.7 µM) and the MIC (E.cloacae 908SSi) was 0.12 µg/mL (≈ 0.238 µM). The MIC (P.vulgaris 1028) was 1 µg/mL (≈ 1.98 µM), the MIC (N.meningitidis 69480) was ≤ 0.06 µg/mL and the MIC (M.catarrhalis RA21) was 8 µg/mL (≈ 15.9 µM). For the same compound, the MIC (S.pneumoniae Q19) was ≤ 0.06 µg/mL, the MIC (S.marcescens 69438) was 0.5 µg/mL (≈ 0.991 µM) and the MIC (M.morganii 6H-137) was ≤ 0.06 µg/mL. The MIC (H.influenzae 1) was 0.25 µg/mL (≈ 0.495 µM), the MIC (E.cloacae 908R) was 8 µg/mL (≈ 15.9 µM) and the MIC (E.faecalis 6) was 1 µg/mL (≈ 1.98 µM). For the same compound, the MIC (S.aureus MSSA; MIC range) was 0.5 to 1 µg/mL (≈ 0.991 to 1.98 µM), the MIC50 (S.aureus MSSA) was 1 µg/mL (≈ 1.98 µM) and the MIC90 (S.aureus MSSA) was 1 µg/mL (≈ 1.98 µM). It also gave an MIC (E.faecalis [2]; MIC range) of 0.25 to 2 µg/mL (≈ 0.495 to 3.96 µM), an MIC50 (E.faecalis [2]) of 1 µg/mL (≈ 1.98 µM) and an MIC90 (E.faecalis [2]) of 2 µg/mL (≈ 3.96 µM). The MIC50 (S.viridans group) was 2 µg/mL (≈ 3.96 µM), the MIC90 (S.viridans group) was 2 µg/mL (≈ 3.96 µM) and the MIC (S.viridans group; MIC range) was 0.12 to 8 µg/mL (≈ 0.238 to 15.9 µM).
